Measured values: patent publication US10711006B2, “Selective Bruton's tyrosine kinase inhibitor and use thereof” (HANGZHOU HERTZ PHARMACEUTICAL CO., LTD., priority 2016, dated 2020)

Key:
ITK = ITK (Homo sapiens (Human), UniProt Q08881); assay: Kinase selectivity experiment, ITK; type: biochemical; details: read-out: Inhibitory activity against ITK (IC50)
Description: A 1× kinase base buffer and a reaction stop buffer for respective kinases in the experiment were prepared as required.
Preparation of Compounds to be Tested:
2) diluting each compound at a 5-fold concentration gradient in a 96-well plate to 6 to 7 concentrations and ensuring that the drug volume in each well was 10 μl; and at the same time adding 100 μl of DMSO to prepare a blank control group and also preparing a negative control group without the enzyme substrate; and
3) preparing another 96-well plate, adding 10 μl of each of the above compounds to 90 μl of the 1× kinase base buffer and mixing for 10 minutes to be uniform.
Preparation of the Plate to be Tested:
1) 5 μl of the mixed solution prepared as above in the 96-well plate was taken and transferred to a 384-well plate, with two replicate wells for each compound.
1) Preparing a 2.5× kinase solution and adding a corresponding 1× kinase base buffer;
2) preparing a 2.5× polypeptide solution and adding FAM-labeled polypeptide and ATP in the 1× kinase base buffer; and
3) adding 10 μl of 2.5× kinase solution to a 384-well plate to be tested, placing in a room-temperature environment for 10 minutes, and then adding 10 μl of the 2.5× polypeptide solution, reacting at 28° C. for 1 hour, and then adding 25 μl of a reaction stop buffer.
The Caliper program reads the plate and uses the data to obtain the IC50 values of the corresponding compounds against kinases.

hERG potassium channel = hERG potassium channel (Homo sapiens (Human), UniProt Q12809); assay: hERG potassium channel inhibitory activity, manual patch clamp in CHO cells; type: cell-based; details: for IC50: CHO cells stably expressing hERG, whole-cell patch clamp
Chain of hERG potassium channel (Q12809 whole entry): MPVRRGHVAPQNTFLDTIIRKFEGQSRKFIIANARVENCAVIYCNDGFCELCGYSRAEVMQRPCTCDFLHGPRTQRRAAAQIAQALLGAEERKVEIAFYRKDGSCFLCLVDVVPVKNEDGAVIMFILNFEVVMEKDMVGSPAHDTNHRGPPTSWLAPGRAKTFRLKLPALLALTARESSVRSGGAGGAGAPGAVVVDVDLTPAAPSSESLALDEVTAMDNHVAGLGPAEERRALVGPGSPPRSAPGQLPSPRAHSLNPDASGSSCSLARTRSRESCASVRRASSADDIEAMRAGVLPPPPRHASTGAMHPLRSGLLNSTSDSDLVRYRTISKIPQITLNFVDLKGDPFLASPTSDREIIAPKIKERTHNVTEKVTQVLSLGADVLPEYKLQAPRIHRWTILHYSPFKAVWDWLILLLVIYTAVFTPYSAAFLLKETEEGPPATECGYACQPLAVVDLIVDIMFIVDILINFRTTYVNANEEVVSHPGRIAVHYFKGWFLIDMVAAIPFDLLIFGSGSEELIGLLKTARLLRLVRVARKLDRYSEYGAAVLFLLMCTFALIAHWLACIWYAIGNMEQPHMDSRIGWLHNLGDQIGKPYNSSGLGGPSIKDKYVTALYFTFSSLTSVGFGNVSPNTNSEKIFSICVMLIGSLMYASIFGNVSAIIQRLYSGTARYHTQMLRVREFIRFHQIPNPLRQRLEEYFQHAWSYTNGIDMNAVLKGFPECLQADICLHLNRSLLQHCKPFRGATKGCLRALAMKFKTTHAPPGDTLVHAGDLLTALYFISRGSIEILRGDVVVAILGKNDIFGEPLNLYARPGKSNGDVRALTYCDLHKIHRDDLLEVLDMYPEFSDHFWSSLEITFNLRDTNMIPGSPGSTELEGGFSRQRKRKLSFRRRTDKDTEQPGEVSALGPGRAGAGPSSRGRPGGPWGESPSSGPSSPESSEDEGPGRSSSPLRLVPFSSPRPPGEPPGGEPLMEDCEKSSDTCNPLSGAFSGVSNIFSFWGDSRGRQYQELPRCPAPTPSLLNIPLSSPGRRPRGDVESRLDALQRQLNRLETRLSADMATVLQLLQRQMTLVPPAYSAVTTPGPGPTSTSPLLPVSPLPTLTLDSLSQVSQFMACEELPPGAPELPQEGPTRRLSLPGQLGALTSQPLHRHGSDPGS

[1] = Oral pharmacokinetic experiment in SD rats; type: in vivo; details: for oral bioavailability relative to ibrutinib: oral 10 mg/kg; for AUC0-C(ng/h/mL) / AUC0-t (ng/h/mL) / Cmax / Tmax / half-life: oral (intragastric) 10 mg/kg; for AUC0-C(ng/h/mL) / AUC0-t (ng/h/mL) / bioavailability / Cmax / Tmax / half-life: mean n = 3; for bioavailability / Cmax / Tmax / half-life: rat, plasma; for bioavailability: oral 10 mg/kg vs intravenous 2 mg/kg
Description: SD rats were used as experimental animals and were subjected to intragastric administration in a dose of 10 mg/kg and tail-vein intravenous injection in a dose of 2 mg/kg. The tail-vein blood sampling time points in the intragastric administration were 0.17, 0.33, 0.5, 1, 1.5, 2, 4, 6, 8, 12, and 24 hours; the blood sampling time points in the intravenous administration were 0.05, 0.1, 0.17, 0.5, 1, 2, 4, 6, 8, 12, and 24 hours. 0.3 ml of whole blood was taken, and 0.1 ml of plasma after centrifugation was taken and analyzed by LC-MS.

Chain of ITK (Q08881 whole entry, species assumed): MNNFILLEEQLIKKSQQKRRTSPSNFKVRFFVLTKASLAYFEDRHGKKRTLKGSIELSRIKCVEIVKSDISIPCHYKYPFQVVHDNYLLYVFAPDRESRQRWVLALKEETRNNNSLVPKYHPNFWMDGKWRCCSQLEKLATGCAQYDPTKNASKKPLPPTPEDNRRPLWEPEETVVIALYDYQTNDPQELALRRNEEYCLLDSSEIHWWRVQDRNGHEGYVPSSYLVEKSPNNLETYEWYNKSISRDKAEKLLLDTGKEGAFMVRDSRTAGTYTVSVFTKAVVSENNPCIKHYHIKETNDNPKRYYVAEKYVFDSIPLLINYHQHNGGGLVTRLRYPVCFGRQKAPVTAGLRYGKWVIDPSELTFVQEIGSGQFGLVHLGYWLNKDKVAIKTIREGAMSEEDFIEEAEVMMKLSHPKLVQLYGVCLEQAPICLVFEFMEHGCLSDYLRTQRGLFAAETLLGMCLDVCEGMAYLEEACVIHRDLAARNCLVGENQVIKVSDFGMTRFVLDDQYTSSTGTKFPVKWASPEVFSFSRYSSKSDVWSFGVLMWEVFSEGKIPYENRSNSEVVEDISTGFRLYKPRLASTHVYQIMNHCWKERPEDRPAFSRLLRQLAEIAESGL

IC50 (ITK) [µM]	oral bioavailability relative to ibrutinib [1] [times]	AUC0-C(ng/h/mL) [1] [µg·h/mL]	AUC0-t (ng/h/mL) [1] [µg·h/mL]	bioavailability [1] [%]	Cmax [1] [µg/mL]	Tmax [1] [h]	half-life [1] [h]	SMILES	IC50 (hERG potassium channel) [µM]	hERG IC50 relative to Compound II (hERG potassium channel; IC50 ratio to Compound II) [times]	hERG IC50 relative to ibrutinib (hERG potassium channel; IC50 ratio to ibrutinib) [times]
> 1	1.67	0.698	0.624	20.9	0.292	0.333	6.17	C=CC(=O)N1CCC[C@@H](n2nc(-c3ccc(Oc4ccccc4)nc3)c3c(N)ncnc32)C1 [Compound 15a, (R)-1-(3-(4-amino-3-(6-phenoxypyridin-3-yl)-1H-pyrazolo[3,4-d]pyrimidin-1-yl)piperidin-1-yl) prop-2-en-1-one]	15.5	2.98	4.41
> 1	4.62	2.14	2.08	57.8	0.548	0.75	1.7	C=CC(=O)N1CC[C@@H](n2nc(-c3ccc(Oc4ccccc4)nc3F)c3c(N)ncnc32)C1 [Compound 24a, (R)-1-(3-(4-amino-3-(2-fluoro-6-phenoxypyridin-3-yl)-1H-pyrazolo[3,4-d]pyrimidin-1-yl)pyrrolidin-1-yl)prop-2-en-1-one]	7.66		
